According to ChEMBL document CHEMBL4417636, “Small molecule inhibitors of pendrin ion exchange and pharmaceutical compositions” (2017):
Active and inactive are the calls of the source. No cut-off for these calls is given here.

Tests used:
[1] = tested on: Mus musculus; experiment: Potentiation of 20 mg/kg, ip bid for 8 days furosemide-induced chronic diuretic action in CD1 mouse assessed as effect on urine osmolarity at 10 mg/kg, ip measured at 3 hrs relative to control; format: functional, organism-based
[2] = target: T1, Pendrin (Homo sapiens) (UniProt O43511); experiment: Inhibition of pendrin in human bronchial epithelial cells assessed as increase in airway surface liquid depth at 25 uM by rhodamine B-dextran fluorescence based confocal microscopy (reference value: -16 um)
T1 sequence (whole entry): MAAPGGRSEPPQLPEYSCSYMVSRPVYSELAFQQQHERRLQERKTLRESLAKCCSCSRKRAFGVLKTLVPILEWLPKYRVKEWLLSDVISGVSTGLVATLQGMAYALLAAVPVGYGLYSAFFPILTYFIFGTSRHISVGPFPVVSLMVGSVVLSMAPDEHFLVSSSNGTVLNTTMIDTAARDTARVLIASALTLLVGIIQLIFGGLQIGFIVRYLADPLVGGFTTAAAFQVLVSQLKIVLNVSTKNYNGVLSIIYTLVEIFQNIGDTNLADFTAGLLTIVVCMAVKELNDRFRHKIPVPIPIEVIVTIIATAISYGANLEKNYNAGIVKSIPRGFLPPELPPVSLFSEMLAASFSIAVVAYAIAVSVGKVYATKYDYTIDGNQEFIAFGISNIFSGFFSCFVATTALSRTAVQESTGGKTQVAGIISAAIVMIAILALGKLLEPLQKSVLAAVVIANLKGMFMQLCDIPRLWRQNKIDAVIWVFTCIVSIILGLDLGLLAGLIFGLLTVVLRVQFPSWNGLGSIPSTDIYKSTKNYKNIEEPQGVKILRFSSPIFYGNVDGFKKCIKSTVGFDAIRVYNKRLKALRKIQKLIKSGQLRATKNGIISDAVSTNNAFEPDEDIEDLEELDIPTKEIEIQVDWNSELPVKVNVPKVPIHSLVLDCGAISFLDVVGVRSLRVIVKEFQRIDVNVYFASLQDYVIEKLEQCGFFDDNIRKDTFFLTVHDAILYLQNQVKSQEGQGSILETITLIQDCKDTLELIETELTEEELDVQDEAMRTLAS

[3] = tested on: Mus musculus; experiment: Effect on renal function in C57B/6 mouse assessed as effect on blood gas values at 50 mg/kg, ip; format: ADME, organism-based; settings: in vivo
[4] = target: T1, Pendrin (Homo sapiens); experiment: Inhibition of human pendrin expressed in FRT cells co-expressing EYFP-HIF assessed as reduction in pendrin-mediated C17SCN(-) exchange incubated for 10 mins by pH-sensitive fluorescent probe BCECF-AM based fluorescence assay relative to control; format: cell-based
[5] = target: T1, Pendrin (Homo sapiens); experiment: Inhibition of human pendrin expressed in FRT cells co-expressing EYFP-HIF assessed as reduction in pendrin-mediated C17HCO3(-) exchange by measuring reduction in cytoplasmic alkalinization exchange at 25 uM by pH-sensitive fluorescent probe BCECF-AM based fluorescence assay relative to control; format: cell-based
[6] = target: T1, Pendrin (Homo sapiens); experiment: Reversible inhibition of human pendrin expressed in FRT cells co-expressing EYFP-HIF assessed as reduction in pendrin-mediated C17SCN(-) exchange incubated for 10 mins measured after wash out by pH-sensitive fluorescent probe BCECF-AM based fluorescence assay relative to control; format: cell-based
[7] = tested on: Mus musculus; experiment: Effect on renal function in C57B/6 mouse assessed as effect on urinary salt excretion at 50 mg/kg, ip measured at 3 hrs; format: ADME, organism-based; settings: in vivo
[8] = target: T1, Pendrin (Homo sapiens); experiment: Time dependent inhibition of human pendrin expressed in FRT cells co-expressing EYFP-HIF assessed as reduction in pendrin-mediated C17SCN(-) exchange by pH-sensitive fluorescent probe BCECF-AM based fluorescence assay relative to control; format: cell-based; settings: TDE = time-dependent effect
[9] = tested on: Mus musculus; experiment: Effect on renal function in C57B/6 mouse assessed as effect on urine pH at 50 mg/kg, ip; format: ADME, organism-based; settings: in vivo
[10] = species on record: Homo sapiens; experiment: Effect on airway surface liquid pH in IL13-stimulated human CFBE at 25 uM by pH-sensitive fluorophore BCECF based fluorescence based assay; format: functional
[11] = target: T1, Pendrin (Homo sapiens); experiment: Inhibition of human pendrin expressed in FRT cells co-expressing EYFP-HIF assessed as reduction in pendrin-mediated C17F exchange incubated for 10 mins by pH-sensitive fluorescent probe BCECF-AM based fluorescence assay relative to control; format: cell-based
[12] = tested on: Mus musculus; experiment: Potentiation of 20 mg/kg, ip bid for 8 days furosemide-induced chronic diuretic action in CD1 mouse assessed as increase in urinary Na+ excretion at 10 mg/kg, ip measured at 3 hrs relative to control; format: functional, organism-based
[13] = tested on: Mus musculus; experiment: Potentiation of 20 mg/kg, ip bid for 8 days furosemide-induced chronic diuretic action in CD1 mouse assessed as increase in urinary K+ excretion at 10 mg/kg, ip measured at 3 hrs relative to control; format: functional, organism-based
[14] = tested on: Mus musculus; experiment: Effect on renal function in CD1 mouse assessed as effect on urinary salt excretion at 50 mg/kg, ip measured at 3 hrs; format: ADME, organism-based; settings: in vivo
[15] = tested on: Mus musculus; experiment: Effect on renal function in CD1 mouse assessed as effect on blood gas values at 50 mg/kg, ip; format: ADME, organism-based; settings: in vivo
[16] = tested on: Mus musculus; experiment: Effect on renal function in CD1 mouse assessed as effect on urine pH at 50 mg/kg, ip; format: ADME, organism-based; settings: in vivo
[17] = target: T1, Pendrin (Homo sapiens); experiment: Inhibition of pendrin in IL13-stimulated human bronchial epithelial cells assessed as reduction in gluconate gradient-induced intracellular alkalization at 25 uM; format: cell-based
[18] = tested on: Mus musculus; experiment: Potentiation of 20 mg/kg, ip furosemide-induced acute diuretic action in CD1 mouse assessed as effect on urinary K+ excretion at 10 mg/kg, ip measured at 3 hrs relative to control; format: functional, organism-based

Compound | Activity [1] | Activity [2] | Activity [3] | inhibition [4] | inhibition [5] | inhibition [6] | Activity [7] | inhibition [8] | Activity [9] | Activity [10] | inhibition [11] | Activity [12] | Activity [13] | Activity [14] | Activity [15] | Activity [16] | inhibition [17] | Activity [18]
Cn1nc(COc2cccc(F)c2)c2c1CCN(C(=O)Nc1ccc(Cl)cc1)C2 | inactive | -8 µm | Non-Toxic | Dose-dependent effect | Active | Active | Non-Toxic | Tde | Non-Toxic | inactive | Dose-dependent effect | Active | Active | Non-Toxic | Non-Toxic | Non-Toxic | Active | 
Cc1n[nH]c(-c2cc(S(=O)(=O)NC3CCCc4ccccc43)c(C)s2)c1C (configuration not stated) | inactive |  | Non-Toxic | Dose-dependent effect | Active | Active | Non-Toxic | Tde | Non-Toxic |  | Dose-dependent effect | Active | Active | Non-Toxic | Non-Toxic | Non-Toxic |  | inactive
